# Experimental data published in PubChem BioAssay (NCI).
#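 Five concentrations, 48 hours, 96-well plates. GI50 is the concentration that inhibits growth by half. TGI: concentration producing complete growth inhibition.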
# Tests used:
# Assay in all cases: DTP human tumour cell line panel, 48 h
# DU-145 prostate = test system: DU-145 prostate
# HOP-92 NSCLC = test system: HOP-92 NSCLC
# K-562 leukemia = test system: K-562 leukemia
# HL-60(TB) leukemia = test system: HL-60(TB) leukemia
# TK-10 renal = test system: TK-10 renal
# RPMI-8226 leukemia = test system: RPMI-8226 leukemia
# OVCAR-4 ovarian = test system: OVCAR-4 ovarian
# MOLT-4 leukemia = test system: MOLT-4 leukemia
# MDA-MB-435 = test system: MDA-MB-435
# OVCAR-3 ovarian = test system: OVCAR-3 ovarian
# UACC-257 melanoma = test system: UACC-257 melanoma
# CAKI-1 renal = test system: CAKI-1 renal
# SNB-19 CNS = test system: SNB-19 CNS
# UO-31 renal = test system: UO-31 renal
# SK-MEL-28 melanoma = test system: SK-MEL-28 melanoma
# HOP-62 NSCLC = test system: HOP-62 NSCLC
# EKVX NSCLC = test system: EKVX NSCLC
# M14 melanoma = test system: M14 melanoma
# T-47D breast = test system: T-47D breast
# SNB-75 CNS = test system: SNB-75 CNS
# OVCAR-8 ovarian = test system: OVCAR-8 ovarian
# NCI-H522 lung = test system: NCI-H522 lung
# SK-MEL-5 melanoma = test system: SK-MEL-5 melanoma
# HS 578T breast = test system: HS 578T breast
# SF-268 CNS = test system: SF-268 CNS
# HCC-2998 colon = test system: HCC-2998 colon
# HT29 colon = test system: HT29 colon
# COLO 205 colon = test system: COLO 205 colon
compound,measurement,setting,value
c1ccc2[nH]c(-c3ccc(N4CCN(c5ccc(-c6nc7ccccc7[nH]6)cc5)CC4)cc3)nc2c1,GI50,DU-145 prostate,37.5 µM
same,TGI,DU-145 prostate,> 100 µM
same,GI50,HOP-92 NSCLC,> 100 µM
same,TGI,HOP-92 NSCLC,> 100 µM
same,GI50,K-562 leukemia,38.4 µM
same,TGI,K-562 leukemia,> 100 µM
same,GI50,HL-60(TB) leukemia,> 100 µM
same,TGI,HL-60(TB) leukemia,> 100 µM
same,GI50,TK-10 renal,37.9 µM
same,TGI,TK-10 renal,> 100 µM
same,GI50,RPMI-8226 leukemia,40 µM
same,TGI,RPMI-8226 leukemia,> 100 µM
same,GI50,OVCAR-4 ovarian,> 100 µM
same,TGI,OVCAR-4 ovarian,> 100 µM
same,GI50,MOLT-4 leukemia,34.9 µM
same,TGI,MOLT-4 leukemia,> 100 µM
same,GI50,MDA-MB-435,> 100 µM
same,TGI,MDA-MB-435,> 100 µM
same,GI50,OVCAR-3 ovarian,> 100 µM
same,TGI,OVCAR-3 ovarian,> 100 µM
same,GI50,UACC-257 melanoma,> 100 µM
same,TGI,UACC-257 melanoma,> 100 µM
same,GI50,CAKI-1 renal,> 100 µM
same,TGI,CAKI-1 renal,> 100 µM
same,GI50,SNB-19 CNS,10.5 µM
same,TGI,SNB-19 CNS,> 100 µM
same,GI50,UO-31 renal,> 100 µM
same,TGI,UO-31 renal,> 100 µM
same,GI50,SK-MEL-28 melanoma,43 µM
same,TGI,SK-MEL-28 melanoma,> 100 µM
same,GI50,HOP-62 NSCLC,11.4 µM
same,TGI,HOP-62 NSCLC,75.7 µM
same,GI50,EKVX NSCLC,25.7 µM
same,TGI,EKVX NSCLC,> 100 µM
same,GI50,M14 melanoma,12.4 µM
same,TGI,M14 melanoma,> 100 µM
same,GI50,T-47D breast,30.4 µM
same,TGI,T-47D breast,> 100 µM
same,GI50,SNB-75 CNS,> 100 µM
same,TGI,SNB-75 CNS,> 100 µM
same,GI50,OVCAR-8 ovarian,> 100 µM
same,TGI,OVCAR-8 ovarian,> 100 µM
same,GI50,NCI-H522 lung,> 100 µM
same,TGI,NCI-H522 lung,> 100 µM
same,GI50,SK-MEL-5 melanoma,> 100 µM
same,TGI,SK-MEL-5 melanoma,> 100 µM
same,GI50,HS 578T breast,> 100 µM
same,TGI,HS 578T breast,> 100 µM
same,GI50,SF-268 CNS,> 100 µM
same,TGI,SF-268 CNS,> 100 µM
same,GI50,HCC-2998 colon,> 100 µM
same,TGI,HCC-2998 colon,> 100 µM
same,GI50,HT29 colon,> 100 µM
same,TGI,HT29 colon,> 100 µM
same,GI50,COLO 205 colon,> 100 µM
same,TGI,COLO 205 colon,> 100 µM
